Assay results: patent US20240228555A9, “ANTIMICROBIAL PEPTIDOMIMETICS” (Basilea Pharmaceutica International AG, Allschwil, priority 2020, published 2024)
Like-named read-outs stand apart in the source and are kept apart here. Where a SMILES comes first, the peptide text is derived from it. Where no end group is shown, it is not given here. [ ]: non-standard residue; d: D form. Hyp = O=C(O)[C@@H]1C[C@@H](O)CN1; Pen = CC(C)(S)[C@H](N)C(=O)O; dDab = NCC[C@@H](N)C(=O)O; Dab = NCC[C@H](N)C(=O)O

What was measured:
[1] = test system: Escherichia coli ATCC 25922
In short: (§1)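 Broth microdilution; cation-adjusted MHII; inoculum ~5×10^5 CFU/mL from 0.5 McFarland saline suspension; peptide two-fold serial dilutions; polysorbate 80 0.002% final; peptide stock 1 mg/mL in water.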

[2] = test system: Escherichia coli MCR-1 Af 45; conditions: Mueller-Hinton broth II, no visible growth after 18-20 hours at 35° C.
In short: as §1

[3] = test system: Klebsiella pneumoniae SSI3010
In short: as §1

[4] = test system: human red blood cells (hRBC); format: cell-based
In short: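 PBS-washed human erythrocytes (20% v/v) were incubated with compounds at 200 μg/mL for 1 h at 37° C with shaking. Supernatant OD540 was read after 8-fold dilution; hemolysis % = OD540 peptide / OD540 of the 100% lysis control (2.5% Triton X-100 in H2O) ×100, with PBS as 0%.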

[5] = red cells of human, 1 h, 0.2 g/L
[6] = Mueller-Hinton broth II, no visible growth after 18-20 hours at 35° C.

Row | Compound | Escherichia coli ATCC 25922 MIC ([1]; ATCC 25922) [µg/mL] | Escherichia coli MCR-1 Af 45 MIC [2] [µg/mL] | Klebsiella pneumoniae SSI3010 MIC ([3]; SSI3010) [µg/mL] | Hemolysis at 0.2 g/L [4, 5] [%] | Escherichia coli ATCC 25922 MIC [1, 6] [µg/mL] | Klebsiella pneumoniae SSI3010 MIC [3, 6] [µg/mL] | Hemolysis at 0.2 g/L [4] [%]
1 | CC[C@H](C)[C@H](NC(=O)[C@@H](NC(=O)[C@@H]1C[C@@H](O)CN1C(=O)[C@@H](N)C(C)C)[C@@H](C)CC)C(=O)N[C@@H](Cc1ccc(O)cc1)C(=O)N[C@@H]1C(=O)N[C@@H](CC(N)=O)C(=O)N[C@@H](CCCNC(=N)N)C(=O)N[C@@H](CCN)C(=O)N[C@@H]([C@@H](C)O)C(=O)N[C@H](CCN)C(=O)N[C@@H]([C@@H](C)CC)C(=O)N[C@H](C(=O)N[C@@H](CCN)C(=O)N[C@@H](CCCNC(=N)N)C(=O)N[C@@H](Cc2ccc(O)cc2)C(=O)O)CSSC1(C)C [Example 87, Val-Hyp-Ile-Ile-Tyr-Pen-Asn-Arg-Dab-Thr-^DDab-Ile-Cys-Dab-Arg-Tyr] (HELM PEPTIDE1{V.[Hyp].I.I.Y.[Pen].N.R.[Dab].T.[NCC[C@@H](N[*:1])C(=O)[*:2]].I.C.[Dab].R.Y}$PEPTIDE1,PEPTIDE1,6:R3-13:R3$$$V2.0) | 0.125 | 0.125 | 0.25 | <1 | – | – | –
2 | CC[C@H](N)C(=O)N1C[C@H](O)C[C@H]1C(=O)N[C@H](C(=O)N[C@H](C(=O)N[C@@H](Cc1ccc(O)cc1)C(=O)N[C@@H]1C(=O)N[C@@H](CC(N)=O)C(=O)N[C@@H](CCCNC(=N)N)C(=O)N[C@@H](CCN)C(=O)N[C@@H]([C@@H](C)O)C(=O)N[C@H](CCN)C(=O)N[C@@H](CCCCN)C(=O)N[C@H](C(=O)N[C@@H](CCN)C(=O)N[C@@H](CCCNC(=N)N)C(=O)N[C@@H](Cc2ccc(O)cc2)C(=O)O)CSSC1(C)C)[C@@H](C)CC)[C@@H](C)CC [Example 79, Abu-Hyp-Ile-Ile-Tyr-Pen-Asn-Arg-Dab-Thr-^DDab-Lys-Cys-Dab-Arg-Tyr] (HELM PEPTIDE1{[Abu].[Hyp].I.I.Y.[Pen].N.R.[Dab].T.[NCC[C@@H](N[*:1])C(=O)[*:2]].K.C.[Dab].R.Y}$PEPTIDE1,PEPTIDE1,6:R3-13:R3$$$V2.0) | 0.125 | 0.125 | 0.5 | <1 | – | – | –
3 | CC[C@H](C)[C@@H]1NC(=O)[C@@H](NC(=O)[C@H](Cc2ccc(O)cc2)NC(=O)[C@@H](NC(=O)[C@@H](NC(=O)[C@@H]2C[C@@H](O)CN2C(=O)[C@@H](N)C(C)C)[C@@H](C)CC)[C@@H](C)O)C(C)(C)SSC[C@@H](C(=O)N[C@@H](CCN)C(=O)N[C@@H](CCCN)C(=O)N[C@@H](Cc2ccc(O)cc2)C(=O)O)NC(=O)[C@H](CCCCN)NC(=O)[C@@H](CCN)NC(=O)[C@H]([C@@H](C)O)NC(=O)[C@H](CCN)NC(=O)[C@H](CCCNC(=N)N)NC1=O [Example 88, Val-Hyp-Ile-Thr-Tyr-Pen-Ile-Arg-Dab-Thr-^DDab-Lys-Cys-Dab-Orn-Tyr] (HELM PEPTIDE1{V.[Hyp].I.T.Y.[Pen].I.R.[Dab].T.[NCC[C@@H](N[*:1])C(=O)[*:2]].K.C.[Dab].[Orn].Y}$PEPTIDE1,PEPTIDE1,6:R3-13:R3$$$V2.0) | 0.125 | 0.0625 | 0.25 | <1 | – | – | –
4 | V[Hyp]ITY[Pen]NR[Dab]T[dDab]NC[Dab]RY (cysteine pairing not given here) [Example 40] | – | 0.25 | – | – | 0.25 | 0.5 | 0
